{
  "source": "ChEMBL document CHEMBL1201862",
  "about": "“PubChem BioAssay data set” (2004)",
  "key": {"Protein skinhead-1": {"biological_target": "T1, Protein skinhead-1 (Caenorhabditis elegans, UniProt P34707)", "T1 sequence (P34707 whole entry)": "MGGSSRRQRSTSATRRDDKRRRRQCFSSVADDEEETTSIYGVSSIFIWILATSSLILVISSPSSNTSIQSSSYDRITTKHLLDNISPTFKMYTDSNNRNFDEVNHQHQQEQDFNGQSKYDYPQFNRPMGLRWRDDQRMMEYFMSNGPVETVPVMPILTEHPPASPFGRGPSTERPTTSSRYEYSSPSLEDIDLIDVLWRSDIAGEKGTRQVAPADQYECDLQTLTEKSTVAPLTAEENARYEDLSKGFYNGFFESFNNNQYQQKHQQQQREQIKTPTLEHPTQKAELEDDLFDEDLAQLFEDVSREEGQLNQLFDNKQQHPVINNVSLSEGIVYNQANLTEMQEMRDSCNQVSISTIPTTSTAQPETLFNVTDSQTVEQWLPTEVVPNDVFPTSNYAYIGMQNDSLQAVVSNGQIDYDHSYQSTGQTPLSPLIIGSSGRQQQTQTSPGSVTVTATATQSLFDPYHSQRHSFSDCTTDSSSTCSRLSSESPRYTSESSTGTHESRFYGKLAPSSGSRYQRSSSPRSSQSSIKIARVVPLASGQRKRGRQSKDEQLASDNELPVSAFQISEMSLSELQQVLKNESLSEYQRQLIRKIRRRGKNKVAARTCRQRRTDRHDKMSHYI", "assay_type": "functional"}, "[1]": {"experiment": "viability of PTEN-deleted HCT116 cells – cell-based, HCT116 PTEN knockout, dose response (AID 1047);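 note: HCT116 colon tumor cells with PTEN knocked out; cells exposed to compound for 60 hours before readout; potency for loss of cell viability measured by luminescence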", "assay_type": "functional"}, "[2]": {"experiment": "viability of HCT116 lacking mutant beta-catenin – cell-based, human colon tumor, dose response (AID 1045);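 note: HCT116 colon tumor cells with beta catenin knocked out; cells exposed to compound for 60 hours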", "assay_type": "functional"}, "cells [3]": {"experiment": "cells", "assay_type": "functional"}, "cells [4]": {"experiment": "cells", "assay_type": "functional, cell-based"}, "cells [5]": {"experiment": "cells", "assay_type": "functional, cell-based", "remark": "listed apart in the source"}, "Cytochrome P450 3A4": {"biological_target": "Cytochrome P450 3A4 (Homo sapiens, UniProt P08684)", "sequence (P08684 whole entry)": "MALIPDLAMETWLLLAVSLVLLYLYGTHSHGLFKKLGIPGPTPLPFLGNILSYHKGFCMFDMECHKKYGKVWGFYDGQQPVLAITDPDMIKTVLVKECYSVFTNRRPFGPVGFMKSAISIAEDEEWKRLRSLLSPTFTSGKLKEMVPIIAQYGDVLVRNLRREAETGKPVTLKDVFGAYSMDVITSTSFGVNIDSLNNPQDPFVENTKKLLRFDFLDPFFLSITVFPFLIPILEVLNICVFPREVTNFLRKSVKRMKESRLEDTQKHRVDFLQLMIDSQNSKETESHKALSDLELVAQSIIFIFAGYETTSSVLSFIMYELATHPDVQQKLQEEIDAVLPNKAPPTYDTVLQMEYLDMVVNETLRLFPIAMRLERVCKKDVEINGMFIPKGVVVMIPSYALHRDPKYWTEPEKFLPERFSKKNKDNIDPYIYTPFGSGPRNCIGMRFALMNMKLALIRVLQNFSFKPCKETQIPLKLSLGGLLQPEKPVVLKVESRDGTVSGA", "conditions": "Potency"}, "[6]": {"biological_target": "T2, Zinc finger protein mex-5 (Caenorhabditis elegans, UniProt Q9XUB2)", "T2 sequence (Q9XUB2 whole entry)": "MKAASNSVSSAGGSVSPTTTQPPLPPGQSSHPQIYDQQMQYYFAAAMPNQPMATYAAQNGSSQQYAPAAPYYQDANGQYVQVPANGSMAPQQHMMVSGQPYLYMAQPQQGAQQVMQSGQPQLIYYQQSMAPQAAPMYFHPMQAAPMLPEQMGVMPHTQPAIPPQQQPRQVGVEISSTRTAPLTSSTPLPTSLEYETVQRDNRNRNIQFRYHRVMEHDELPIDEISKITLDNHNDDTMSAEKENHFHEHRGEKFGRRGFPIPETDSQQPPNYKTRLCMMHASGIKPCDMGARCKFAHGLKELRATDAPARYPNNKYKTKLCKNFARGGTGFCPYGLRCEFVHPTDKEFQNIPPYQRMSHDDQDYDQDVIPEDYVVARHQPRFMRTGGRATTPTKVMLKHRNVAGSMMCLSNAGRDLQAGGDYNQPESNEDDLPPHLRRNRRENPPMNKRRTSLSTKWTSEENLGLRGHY", "experiment": "potency of MEX-5 RNA-binding blockers – biochemical, C. elegans, fluorescence polarization, dose response (AID 1960)"}, "[7]": {"biological_target": "T3, RNA-binding protein pos-1 (Caenorhabditis elegans, UniProt G5EF15)", "T3 sequence (G5EF15 whole entry)": "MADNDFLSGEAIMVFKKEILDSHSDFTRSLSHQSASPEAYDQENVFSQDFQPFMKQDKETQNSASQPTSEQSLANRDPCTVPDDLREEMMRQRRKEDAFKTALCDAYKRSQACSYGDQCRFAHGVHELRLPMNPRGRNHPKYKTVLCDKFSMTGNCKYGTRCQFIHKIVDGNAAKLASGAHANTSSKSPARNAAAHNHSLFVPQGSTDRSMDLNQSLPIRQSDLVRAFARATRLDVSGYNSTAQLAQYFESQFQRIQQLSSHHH", "experiment": "disruptors of C. elegans POS-1 RNA interaction – biochemical, fluorescence polarization, dose response (AID 1964);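 note: purified POS-1 fused to maltose binding protein made in E. coli; potency of compounds blocking POS-1 binding to fluorescent RNA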"}, "[8]": {"experiment": "HIV-1 AD8 envelope cell-cell fusion blockers – cherry-pick, dose response (AID 652062);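 note: luciferase signal from cell-cell fusion driven by HIV-1 clade B AD8 Env; potency is for inhibitors of fusion seen as a drop in luminescence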", "assay_type": "functional, cell-based"}, "[9]": {"experiment": "blockers of HIV-1 envelope-mediated cell-cell fusion – cherry-pick, dose response (AID 652057)", "assay_type": "functional, cell-based"}, "[10]": {"experiment": "non-specific 3'UTR reporter inhibition in Clone20-Shn3RL – cell-based, Renilla luciferase, cherry-picked, counter-screen for Shn3 inhibitor project, dose response (AID 624133)", "assay_type": "functional"}, "[11]": {"experiment": "loss of viability in HepG2 cells – cell-based, CellTiter-Glo, cherry-picked, cytotoxicity control for Shn3 inhibitor project, dose response (AID 624134)", "assay_type": "functional"}, "[12]": {"experiment": "reduction of Shn3 3'UTR-driven luciferase in osteoblasts – cell-based, Clone20 osteoblasts, firefly luciferase, cherry-picked, dose response (AID 624132);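 note: firefly luciferase luminescence from reporter carrying the Shn3 3'UTR in osteoblasts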", "assay_type": "functional"}},
  "note": "Values joined by “and” are separate entries in the source; they are usually repeats but may differ in a detail not shown here. Equal entries are not always repeated. Active and inactive are the calls of the source.",
  "data": [
    {"compound": "Fc1ccc(-c2csc(-c3ccncc3)n2)cc1", "values": [
      {"measurement": "IC50", "setting": "Protein skinhead-1", "result": "10.5 µM (active)"}
    ]},
    {"compound": "CCOC(=O)c1cc2c(N)c(C(=O)c3cc(C#N)c(SC)nc3C)sc2nc1C", "values": [
      {"measurement": "EC50", "setting": "[1]", "result": "8.22 µM (active)"},
      {"measurement": "EC50", "setting": "[2]", "result": "8.35 µM (active)"}
    ]},
    {"compound": "O=C(NC1CC2CCC1C2)C1COc2ccccc2O1", "note": "(centres undefined)", "values": [
      {"measurement": "IC50", "setting": "cells [3]", "result": "> 50 µM (active)"}
    ]},
    {"compound": "Nc1c(C(=O)Nc2cccc(Cl)c2Cl)sc2nc(-c3cccnc3)ccc12", "values": [
      {"measurement": "EC50", "setting": "[1]", "result": "5.65 µM (active)"},
      {"measurement": "EC50", "setting": "[2]", "result": "11 µM (active)"}
    ]},
    {"compound": "Cc1c(C(=O)N2CCCCC2)c(S(=O)(=O)NCCc2ccc(Cl)cc2)c(C)n1C", "values": [
      {"measurement": "EC50", "setting": "cells [4]", "result": "> 350 µM (not active)"},
      {"measurement": "EC50", "setting": "cells [5]", "result": "> 350 µM (not active)"}
    ]},
    {"compound": "CN(C)c1ccc(C(=N)c2ccc(N(C)C)cc2)cc1", "values": [
      {"measurement": "AC50", "setting": "Cytochrome P450 3A4", "result": "15.8 µM (inconclusive)"}
    ]},
    {"compound": "CC1(OC(=O)c2cccs2)C(=O)C=C2C=C(C3CC3)OC=C2C1=O", "note": "(centres undefined)", "values": [
      {"measurement": "EC50", "setting": "[6]", "result": "33 µM (active)"},
      {"measurement": "EC50", "setting": "cells [4]", "result": "> 350 µM (not active)"},
      {"measurement": "EC50", "setting": "cells [5]", "result": "> 350 µM (not active)"},
      {"measurement": "EC50", "setting": "[7]", "result": "42.3 µM (active)"}
    ]},
    {"compound": "Cc1cc(NC(=O)C2CC(=O)N(c3cccc(C)c3C)C2)no1", "note": "(centres undefined)", "values": [
      {"measurement": "EC50", "setting": "cells [4]", "result": "> 350 µM (not active)"},
      {"measurement": "EC50", "setting": "cells [5]", "result": "> 350 µM (not active)"}
    ]},
    {"compound": "Cc1ccc(NC(=O)Cn2cc(S(=O)(=O)c3ccc(C)cc3)c(=O)c3cc(F)ccc32)cc1", "values": [
      {"measurement": "EC50", "setting": "[1]", "result": "10.9 µM (active)"},
      {"measurement": "EC50", "setting": "[2]", "result": "9.08 µM (active)"}
    ]},
    {"compound": "CC1(C)[C@@H](O)CC[C@]2(C)[C@H]3C(=O)C=C4[C@@H]5C[C@@](C)(C(=O)O)CC[C@]5(C)CC[C@@]4(C)[C@]3(C)CC[C@@H]12", "note": "[ENOXOLONE]", "values": [
      {"measurement": "AC50", "setting": "Cytochrome P450 3A4", "result": "15.8 µM (inconclusive)"}
    ]},
    {"compound": "O=C(NCc1ccc(Cl)cc1)C1CCN(c2nnc(N3CCCC3=O)s2)CC1", "values": [
      {"measurement": "IC50", "setting": "Protein skinhead-1", "result": "> 100 µM (inactive)"}
    ]},
    {"compound": "COc1ccc(NC(=O)Nc2ccc3c(c2)C(=O)N([C@H](C)CO)C[C@H](C)[C@H](CN(C)S(=O)(=O)c2ccc(OC)cc2)O3)cc1", "values": [
      {"measurement": "AC50", "setting": "[8]", "result": "4.67 µM (active)"},
      {"measurement": "AC50", "setting": "[9]", "result": "2.08 µM (active)"}
    ]},
    {"compound": "Cc1cccc(NC(=O)CSc2nc3ccccc3c(=O)n2C)c1C", "values": [
      {"measurement": "AC50", "setting": "[10]", "result": "15.2 µM (active)"},
      {"measurement": "AC50", "setting": "[11]", "result": "39 µM (active)"},
      {"measurement": "AC50", "setting": "[12]", "result": "2.98 µM (active)"}
    ]},
    {"compound": "CCc1ccc(C(=O)Nc2ccc3nc(C)ccc3c2)cc1", "values": [
      {"measurement": "IC50", "setting": "Protein skinhead-1", "result": "10.1 µM (active)"}
    ]},
    {"compound": "COc1ccccc1/C=C/C1=CC2(C)CC1(C)C(c1ccccc1OC)CC2=O", "note": "(centres undefined)", "values": [
      {"measurement": "AC50", "setting": "Cytochrome P450 3A4", "result": "3.16 µM (inconclusive)"}
    ]},
    {"compound": "COC(=O)C1=C(C)N(Cc2ccccc2)[C@]23O[C@](C(=O)OC)(C(=O)N2C1c1ccccc1)C1C(=O)N(C)C(=O)C13", "note": "(some centres undefined)", "values": [
      {"measurement": "AC50", "setting": "Cytochrome P450 3A4", "result": "2.51 µM (inconclusive) and 3.16 µM (inconclusive)"}
    ]},
    {"compound": "Cc1cc(O)cc(=O)o1", "values": [
      {"measurement": "AC50", "setting": "Cytochrome P450 3A4", "result": "39.8 µM (inconclusive)"}
    ]},
    {"compound": "Cc1ccc(C)c(SCC(=O)OCC(=O)N2CC(C)OC(C)C2)c1", "note": "(centres undefined)", "values": [
      {"measurement": "EC50", "setting": "cells [4]", "result": "> 350 µM (not active)"},
      {"measurement": "EC50", "setting": "cells [5]", "result": "> 350 µM (not active)"}
    ]},
    {"compound": "CCc1nc2oc3ccccc3c(=O)c2c(=O)n1-c1ccccc1", "values": [
      {"measurement": "IC50", "setting": "Protein skinhead-1", "result": "> 100 µM (inactive)"}
    ]},
    {"compound": "CCC(=O)Nc1cccc(C(=O)/C=C/c2cc(Br)ccc2OC)c1", "values": [
      {"measurement": "EC50", "setting": "[1]", "result": "1.3 µM (active)"},
      {"measurement": "EC50", "setting": "[2]", "result": "0.933 µM (active)"}
    ]},
    {"compound": "O=C(CCSc1nnc(-c2ccccc2)o1)N1CCOCC1", "values": [
      {"measurement": "IC50", "setting": "cells [3]", "result": "20.7 µM (active)"}
    ]}
  ]
}
